Results published in patent publication US9782434B2, “Methods of treating or preventing inflammation and hypersensitivity with oxidative reductive potential water solution” (Oculus Innovative Sciences, Inc., priority 2006, dated 2017).
Where two headings read alike, the source gives them in different places. Bridge positions count the residues as written; N and C are the ends. Square brackets hold non-standard residues; d marks the D form. Peptide text beside a SMILES is read from it. * marks the point of attachment. Ileψ(thiazoline)Cys = CC[C@H](C)[C@H](N)C1=N[C@H](C(=O)*)CS1; dOrn = NCCC[C@@H](N)C(=O)O

Columns and labels:
[1] = system: B. atropheus spores, Pseudomonas aeruginosa, and Staphylococcus aureus; test: Bacterial suspension assay, test organisms overall; type: cell-based; details: 33 Units/ml; over the time periods tested
Experimental: Dermacyn is a ready to use product, therefore performing dilutions during testing was not required.
A purchased spore suspension of B. atropheus at 2.5×10^7/ml was used for testing. In addition fresh suspensions of Pseudomonas aeruginosa, and Staphylococcus aureus were prepared and measured using a spectrophotometer to ensure the titer was acceptable
Nine microliters of test substance was added to 100 ul of microbe suspension. The test mixture was held at 20° C. for the contact times of 20 seconds, 5 minutes, and 20 minutes. […] (entire mixture) was added to 9.0 ml of neutralizer for 20 minutes (this is the original neutralization tube or ONT) 1.0 ml of the neutralized test mixture was plated on Tryptic Soy Agar in duplicate for the 5 minute and 20 minute contact times. Additional dilutions and spread plates were used for the 20 second time point, to achieve countable plates.
All plates were incubated at 30° C.-35° C. for a total of 3 days and were evaluated after each day of incubation.

[2] = system: human diploid fibroblasts (HDFs); test: Cell viability, apoptosis and necrosis by flow cytometry; type: cell-based; details: 880 mM
Experimental: HP is known to be toxic to eukaryotic cells, increasing apoptosis and necrosis and reducing cellular viability. […] HDF cultures were obtained from three different foreskins, which were pooled and cryopreserved together for the purpose of this study. Only diploid cells were used for all experiments. […] Simultaneous analyses of these parameters were performed in the same cell populations by flow cytometry using: […] B) Annexin V-FITC; and C) Propidium iodide. FIG. 4A-4C disclose percentage values expressed as mean±SD (n=3).

[3] = system: human diploid fibroblasts (HDFs); details: 30 min, 500 μM
[4] = system: murine polychromatic erythrocytes

## CC[C@H](C)[C@H](N)C1=N[C@H](C(=O)N[C@@H](CC(C)C)C(=O)N[C@H](CCC(=O)O)C(=O)N[C@H](C(=O)N[C@H]2CCCCNC(=O)[C@H](CC(N)=O)NC(=O)[C@@H](CC(=O)O)NC(=O)[C@H](Cc3cnc[nH]3)NC(=O)[C@@H](Cc3ccccc3)NC(=O)[C@H]([C@@H](C)CC)NC(=O)[C@@H](CCCN)NC2=O)[C@@H](C)CC)CS1 [Bacitracin] ({Ileψ(thiazoline)Cys}-L[dE]IK[dOrn]I[dF]H[dD]N; lactam 4-C)
[1]
  lowering of bacterial or spore populations: no evidence of lowering the bacterial or spore populations

## OO [HP, hydrogen peroxide]
[2]; 5 min
  Cell viability (7AAD): 55%
  necrosis, cells incorporating propidium iodide: 20%
[2]; 30 min
  Cell viability (7AAD): 5%
  necrosis, cells incorporating propidium iodide: 75%
Human cell cultures
  GAPDH RT-PCR product: little if any GAPDH RT-PCR product
  RNA degradation, denaturing gel electrophoresis: significant RNA degradation
[3]
  increase in number of 8-OHdG adducts relative to control-treated or ORP water solution-treated cells: about 25 fold

## O=P1(N(CCCl)CCCl)NCCCO1 (centres unmarked) [cyclophosphamide]
[4]; females, negative controls 1.02
  PCE/NCE ratio: 0.73
[4]; males, negative controls 0.6
  number of polychromatic erythrocytes bearing micronuclei: 11.0
[4]; males, negative controls 0.90
  PCE/NCE ratio: 0.77
